Data set [1] is described as follows: Log P value at pH 7.4. The conditions noted are these: buffer. Type of data set: physicochemical.
The species named for data set [2] is Mus musculus. As to the kind of experiment: Ataxia assessment was made immediately prior to NMDA injection using a rotarod measurement. It counts as functional. Background: The rotarod test checks motor coordination on a turning rod.
For data set [3], the system named is Mus musculus. The experiment in a line: In vivo NMDA antagonism of compound was assessed for its ability to prevent lethality in mice due to injection of NMDA. It counts as functional.
The next data set deals with Glutamate NMDA receptor. As to the kind of experiment: Inhibitory concentration of compound required to displace [3H]TCP 1-[ 1-(2-thienyl)cyclohexyl]piperidine in whole rat brain homogenate.
The subject of data set [4] is Mus musculus. The experiment in a line: In vivo NMDA antagonism of compound was assessed for its ability to prevent lethality in mice due to injection of NMDA. Type of data set: functional.

pIC50: −log10 of the molar value.

Usually logD stands for lipophilicity at a set pH, counting ionised and neutral species. What is called ED50 is the midpoint of the dose-response relation. The low end stands for greater potency, the high end for weaker potency. Broadly, the pIC50 is the negative decadic logarithm of the IC50, by convention in mol/L. A high value points to a low IC50. As for `CN1C[C@@H]2Cc3ccccc3[C@]13CCCC[C@@H]23`, the logD in data set [1] turned out to be 0.94. The ED50 in the data set filed under Mus musculus [2] was found to be 3 mg/kg; with Mus musculus [3], 1.8 mg/kg. This compound also gave a negative logarithm of the IC50 (pIC50) at Glutamate NMDA receptor of 6.86.

As for `CN[C@]12CCCC[C@H]1CCc1ccccc12`, the log distribution coefficient (logD) in data set [1] was found to be 1.1. Further, the values for the ED50 in the data set listed under Mus musculus [2] and in the data set on Mus musculus [4] were 0.44 mg/kg and 0.54 mg/kg, respectively. For the same compound, at Glutamate NMDA receptor, the pIC50 was 7.83.

The compound `CN1CC[C@]23CCCC[C@@]12c1ccccc1CC3` had a logD in data set [1] of 0.53. The ED50 is 0.3 mg/kg in the data set filed under Mus musculus [2] and 0.72 mg/kg with Mus musculus [4]. Besides, the negative logarithm of the IC50 (pIC50) on Glutamate NMDA receptor is 7.77.

Consider `c1ccc2c(c1)C[C@H]1CN[C@@]23CCCC[C@@H]13`, for which, in data set [1], the logD was -0.1. The figures for the ED50 in the data set listed under Mus musculus [2] and in the data set on Mus musculus [4] were 3.2 mg/kg and 3.5 mg/kg, respectively. The same compound gave a pIC50 at Glutamate NMDA receptor of 7.07.

On to `c1ccc2c(c1)CC[C@@]13CCCC[C@]21NCC3`, for which the ED50 came to 3.2 mg/kg in the data set filed under Mus musculus [2] and 3.5 mg/kg with Mus musculus [3]. Moreover, the pIC50 at Glutamate NMDA receptor was 6.82.

`C[C@]12N[C@H](Cc3ccccc31)c1ccccc12` [DIZOCILPINE] displayed a logD in data set [1] of 2.1. In addition, the ED50 was found to be 0.1 mg/kg in the data set filed under Mus musculus [2] and 0.34 mg/kg in the data set with Mus musculus [4].

For the origin of these results see ChEMBL document CHEMBL1152111, “Synthesis and biological activity of conformationally constrained 4a-phenanthreneamine derivatives as noncompetitive NMDA antagonists” (Bioorg Med Chem Lett, 1993).
